Experimental data reported in patent publication US20120258980A1, “Antibacterial Agent for Drug-Resistant Bacteria, Method for Screening for Same, and Use of Same” (priority 2009, published 2012).
Converted amounts (≈) assume the structure as drawn. Where a name gives a salt, the structure may show the parent alone. Read-outs that look alike come from different tables or passages of the source.

Columns and labels:
[1] = system: MRSA, CA-MRSA and MSSA of Staphylococcus aureus; assay: MIC measurement, Test Example 4 (MRSA, CA-MRSA and MSSA strains); type: cell-based; settings: for MIC: Staphylococcus aureus
Description: Each of the bacterial strains listed in Table 1-1 was shake-cultured at 37° C. overnight in 4 mL of a medium (Tryptical Soy Broth: TSB, product of Becton Dickinson and Company). FDA209P was used as a control.
After completion of culturing, the resultant culture was suspended in a cation-adjusted Mueller Hinton Broth (CAMHB, product of Becton Dickinson and Company). Then, the obtained bacterial culture was adjusted in absorbance with the CAMHB so that the absorbance at 578 nm of the bacterial culture was adjusted to 0.3 measured by an absorption spectrometer. In addition, the resultant bacterial culture was 500-fold diluted with the CAMHB.
Each of the 500-fold diluted, pre-cultured bacterial cultures was added at 50 μL/well to the CAMHB containing the quinolones and the nybomycins at various concentrations (50 μL/well), followed by statically culturing at 37° C. overnight.
After completion of culturing, the growth of the bacteria was visually determined based on turbidity to measure MIC in each bacterial strain.
Glycopeptides, imipenem, quinolones and nybomycins were studied for antibacterial activity against the bacterial strains listed in Table 2-1; i.e., MRSA, CA-MRSA and MSSA of Staphylococcus aureus.

VRSA clinical isolates = settings: based on NARSA, cited from earlier work
[2] = ATCC 29213 / MRSA / MSSA, ATCC 29213, MSSA
[3] = FDA209P / MRSA / MSSA, FDA209P, MSSA
[4] = MRSA / MSSA / NCTC 8325, NCTC 8325, MSSA
[5] = MRSA / MSSA / USA300, USA300 FPR3757, CA-MRSA

Row | SMILES | MIC [1, 2] [µg/mL] | MIC ([1]; COL, MRSA) [µg/mL] | MIC [1, 3] [µg/mL] | MIC ([1]; ISA12-1, MRSA) [µg/mL] | MIC ([1]; ISA12-2, MRSA) [µg/mL] | MIC ([1]; ISA35-1, MRSA) [µg/mL] | MIC ([1]; ISA37-1, MSSA) [µg/mL] | MIC ([1]; ISA49-1, MSSA) [µg/mL] | MIC ([1]; ISA51-1, MSSA) [µg/mL] | MIC ([1]; ISA56-3, MRSA) [µg/mL] | MIC ([1]; ISA58-1, MRSA) [µg/mL] | MIC ([1]; ISA62-1, MRSA) [µg/mL] | MIC ([1]; ISA73-1, MSSA) [µg/mL] | MIC ([1]; KBSA32, MRSA) [µg/mL] | MIC ([1]; KBSA34, MRSA) [µg/mL] | MIC ([1]; KBSA72, MRSA) [µg/mL] | MIC ([1]; KBSA96, MRSA) [µg/mL] | MIC ([1]; KBSA171, MRSA) [µg/mL] | MIC ([1]; KSA24, MRSA) [µg/mL] | MIC ([1]; KSA31, MRSA) [µg/mL] | also measured
1 | Cc1cc(=O)n(C)c2c3c4c(cc12)c(C)cc(=O)n4CO3 [DNM, deoxynybomycin] | 16 (≈ 56.7 µM) | > 64 | 8 (≈ 28.3 µM) | 32 (≈ 113 µM) | 16 (≈ 56.7 µM) | 64 (≈ 227 µM) | > 64 | 16 (≈ 56.7 µM) | 8 (≈ 28.3 µM) | > 64 | 8 (≈ 28.3 µM) | > 64 | > 64 | 32 (≈ 113 µM) | > 64 | ≤ 0.063 | ≤ 0.063 | ≤ 0.063 | 0.125 (≈ 0.443 µM) | 0.25 (≈ 0.886 µM) | MIC ([1]; KSA36, MRSA): ≤ 0.063 µg/mL; MIC [1, 4]: > 64 µg/mL; MIC [1, 5]: 0.125 µg/mL (≈ 0.443 µM); MIC ([1]; MW2, CA-MRSA): 64 µg/mL (≈ 227 µM); MIC ([1]; N315, MRSA): 32 µg/mL (≈ 113 µM); antibacterial activity, comparison between NM and DNM ([1]; against Staphylococcus aureus): higher than that of NM
2 | NC1CCN(c2nc3c(cc2F)c(=O)c(C(=O)O)cn3-c2ccc(F)cc2F)C1 (stereo not shown) [TFLX, tosufloxacin tosylate] | ≤ 0.063 | 0.125 | ≤ 0.063 | ≤ 0.063 | ≤ 0.063 | 0.25 | ≤ 0.063 | ≤ 0.063 | ≤ 0.063 | ≤ 0.063 | 0.5 | ≤ 0.063 | ≤ 0.063 | ≤ 0.063 | ≤ 0.063 | > 128 | 16 | 8 | 8 | 4 | MIC ([1]; KSA36, MRSA): > 128 µg/mL; MIC [1, 4]: ≤ 0.063 µg/mL; MIC [1, 5]: 16 µg/mL; MIC ([1]; MW2, CA-MRSA): ≤ 0.063 µg/mL; MIC ([1]; N315, MRSA): ≤ 0.063 µg/mL
3 | CN[C@H](CC(C)C)C(=O)N[C@H]1C(=O)N[C@@H](CC(N)=O)C(=O)N[C@H]2C(=O)N[C@H]3C(=O)N[C@H](C(=O)N[C@H](C(=O)O)c4cc(O)cc(O)c4-c4cc3ccc4O)[C@H](O)c3ccc(c(Cl)c3)Oc3cc2cc(c3O[C@@H]2O[C@H](CO)[C@@H](O)[C@H](O)[C@H]2O[C@H]2C[C@](C)(N)[C@H](O)[C@H](C)O2)Oc2ccc(cc2Cl)[C@H]1O [VCM, vancomycin] | 0.5 (≈ 0.345 µM) | 0.5 (≈ 0.345 µM) | 0.5 (≈ 0.345 µM) | 0.5 (≈ 0.345 µM) | 0.5 (≈ 0.345 µM) | 1 (≈ 0.69 µM) | 1 (≈ 0.69 µM) | 1 (≈ 0.69 µM) | 1 (≈ 0.69 µM) | 2 (≈ 1.38 µM) | 1 (≈ 0.69 µM) | 1 (≈ 0.69 µM) | 1 (≈ 0.69 µM) | 0.5 (≈ 0.345 µM) | 1 (≈ 0.69 µM) | 1 (≈ 0.69 µM) | 1 (≈ 0.69 µM) | 1 (≈ 0.69 µM) | 1 (≈ 0.69 µM) | 1 (≈ 0.69 µM) | MIC ([1]; KSA36, MRSA): 1 µg/mL (≈ 0.69 µM); MIC [1, 4]: 1 µg/mL (≈ 0.69 µM); MIC [1, 5]: 1 µg/mL (≈ 0.69 µM); MIC ([1]; MW2, CA-MRSA): 0.5 µg/mL (≈ 0.345 µM); MIC ([1]; N315, MRSA): 0.5 µg/mL (≈ 0.345 µM); MIC (VRSA clinical isolates; VRS1, VRSA, Michigan): >256 µg/mL; MIC (VRSA clinical isolates; VRS2, VRSA, Pennsylvania): 64 µg/mL (≈ 44.2 µM); MIC (VRSA clinical isolates; VRS3, VRSA, New York): >32 µg/mL; MIC (VRSA clinical isolates; VRS4, VRSA, New York): >32 µg/mL; MIC (VRSA clinical isolates; VRS5, VRSA, Michigan): >256 µg/mL; MIC (VRSA clinical isolates; VRS6, VRSA, Michigan): >256 µg/mL; MIC (VRSA clinical isolates; VRS7, VRSA, Michigan): >256 µg/mL
4 | CC1COc2c(N3CCN(C)CC3)c(F)cc3c(=O)c(C(=O)O)cn1c23 (stereo not shown) [OFLX, ofloxacin] | 0.25 (≈ 0.692 µM) | 0.5 (≈ 1.38 µM) | 0.125 (≈ 0.346 µM) | 0.5 (≈ 1.38 µM) | 0.5 (≈ 1.38 µM) | 2 (≈ 5.53 µM) | 0.25 (≈ 0.692 µM) | 0.25 (≈ 0.692 µM) | 0.5 (≈ 1.38 µM) | 0.5 (≈ 1.38 µM) | 0.5 (≈ 1.38 µM) | 0.25 (≈ 0.692 µM) | 0.25 (≈ 0.692 µM) | 0.25 (≈ 0.692 µM) | 0.5 (≈ 1.38 µM) | > 128 | 16 (≈ 44.3 µM) | 32 (≈ 88.6 µM) | 32 (≈ 88.6 µM) | 8 (≈ 22.1 µM) | MIC ([1]; KSA36, MRSA): > 128 µg/mL; MIC [1, 4]: 0.25 µg/mL (≈ 0.692 µM); MIC [1, 5]: 16 µg/mL (≈ 44.3 µM); MIC ([1]; MW2, CA-MRSA): 0.5 µg/mL (≈ 1.38 µM); MIC ([1]; N315, MRSA): 0.25 µg/mL (≈ 0.692 µM)
5 | C[C@@H]1CN(c2c(F)c(N)c3c(=O)c(C(=O)O)cn(C4CC4)c3c2F)C[C@H](C)N1 [SPFX, sparfloxacin] | ≤ 0.063 | 0.25 (≈ 0.637 µM) | ≤ 0.063 | 0.125 (≈ 0.319 µM) | 0.125 (≈ 0.319 µM) | 0.125 (≈ 0.319 µM) | 0.125 (≈ 0.319 µM) | ≤ 0.063 | 0.125 (≈ 0.319 µM) | 0.125 (≈ 0.319 µM) | 0.5 (≈ 1.27 µM) | ≤ 0.063 | ≤ 0.063 | ≤ 0.063 | 0.125 (≈ 0.319 µM) | 128 (≈ 326 µM) | 16 (≈ 40.8 µM) | 16 (≈ 40.8 µM) | 16 (≈ 40.8 µM) | 8 (≈ 20.4 µM) | MIC ([1]; KSA36, MRSA): 128 µg/mL (≈ 326 µM); MIC [1, 4]: 0.125 µg/mL (≈ 0.319 µM); MIC [1, 5]: 8 µg/mL (≈ 20.4 µM); MIC ([1]; MW2, CA-MRSA): ≤ 0.063 µg/mL; MIC ([1]; N315, MRSA): ≤ 0.063 µg/mL
